Laboratory results: patent US8952024B2, “Herbicidal pyrimidone derivatives” (E I du Pont de Nemours and Company, priority 2009, dated 2015)

Experiments:
Assay in all cases: Test B pre-/postemergence plant response
Format in all cases: in vivo
[1] = tested on: johnsongrass (Sorghum halepense)
Outline: (§1)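 Greenhouse herbicide screen. Pre- and postemergence (1- to 4-leaf) spray of compound in solvent/surfactant mixture; loam–sand soil for pre, peat/vermiculite medium for post. Visual control rating 0–100 at 13 to 15 days after treatment.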

[2] = tested on: morningglory (Ipomoea coccinea)
Outline: as §1

[3] = tested on: goosegrass (Eleusine indica)
Outline: as §1

[4] = tested on: downy bromegrass (Bromus tectorum)
Outline: as §1

[5] = tested on: ragweed (common ragweed, Ambrosia elatior)
Outline: as §1

[6] = tested on: large crabgrass (Digitaria sanguinalis)
Outline: as §1

corn (Zea mays) = tested on: corn (Zea mays)
Outline: as §1

[7] = tested on: Italian ryegrass (Lolium multiflorum)
Outline: as §1

[8] = tested on: woolly cupgrass (Eriochloa villosa)
Outline: as §1

[9] = tested on: bermudagrass (Cynodon dactylon)
Outline: as §1

[10] = tested on: giant foxtail (Setaria faberii)
Outline: as §1

[11] = tested on: green foxtail (Setaria viridis)
Outline: as §1

[12] = tested on: yellow nutsedge (Cyperus esculentus)
Outline: as §1

[13] = 31 g ai/ha, postemergence, scale 0 to 100, 0 is no effect, 100 is complete control
[14] = 62 g ai/ha, postemergence, 0 is no effect, 100 is complete control, 13 to 15 days
[15] = Postemergence, 125 g ai/ha, visual rating after 13 to 15 days, scale 0 (no effect) to 100 (complete control)
[16] = Postemergence, 250 g ai/ha, scale 0 to 100 (0 no effect, 100 complete control)

## O=C1CCCC(O)=C1C(=O)c1cnc(-c2ccccc2Br)n(-c2ccccc2)c1=O [Compound 71]
[1]; [13]
  Plant response rating, Johnsongrass: 65
[1]; [14]
  Johnsongrass plant response rating (0 to 100 scale): 75
[1]; [15]
  Plant response rating, Johnsongrass: 98
[1]; [16]
  Plant response rating, Johnsongrass: 100
[2]; [13]
  Plant response rating, Morningglory: 65
[2]; [14]
  Morningglory plant response rating (0 to 100 scale): 65
[2]; [15]
  Plant response rating, Morningglory: 75
[2]; [16]
  Plant response rating, Morningglory: 80
[3]; [13]
  Plant response rating, Goosegrass: 75
[3]; [14]
  Goosegrass plant response rating (0 to 100 scale): 75
[3]; [15]
  Plant response rating, Goosegrass: 90
[3]; [16]
  Plant response rating, Goosegrass: 90
[4]; [13]
  Plant response rating, Bromegrass, Downy: 0
[4]; [14]
  Bromegrass, Downy plant response rating (0 to 100 scale): 5
[4]; [15]
  Plant response rating, Bromegrass, Downy: 10
[4]; [16]
  Plant response rating, Bromegrass, Downy: 30
[5]; [13]
  Plant response rating, Ragweed: 75
[5]; [14]
  Ragweed plant response rating (0 to 100 scale): 80
[5]; [15]
  Plant response rating, Ragweed: 80
[5]; [16]
  Plant response rating, Ragweed: 95
[6]; [13]
  Plant response rating, Crabgrass, Large: 65
[6]; [14]
  Crabgrass, Large plant response rating (0 to 100 scale): 75
[6]; [15]
  Plant response rating, Crabgrass, Large: 80
[6]; [16]
  Plant response rating, Crabgrass, Large: 95
Corn (Zea mays); [13]
  Plant response rating, Corn: 0
Corn (Zea mays); [14]
  Corn plant response rating (0 to 100 scale): 0
Corn (Zea mays); [15]
  Plant response rating, Corn: 0
Corn (Zea mays); [16]
  Plant response rating, Corn: 15
[7]; [13]
  Plant response rating, Ryegrass, Italian: 0
[7]; [14]
  Ryegrass, Italian plant response rating (0 to 100 scale): 0
[7]; [15]
  Plant response rating, Ryegrass, Italian: 0
[7]; [16]
  Plant response rating, Ryegrass, Italian: 5
[8]; [13]
  Plant response rating, Cupgrass, Woolly: 10
[8]; [14]
  Cupgrass, Woolly plant response rating (0 to 100 scale): 45
[8]; [15]
  Plant response rating, Cupgrass, Woolly: 85
[8]; [16]
  Plant response rating, Cupgrass, Woolly: 100
[9]; [13]
  Plant response rating, Bermudagrass: 65
[9]; [14]
  Bermudagrass plant response rating (0 to 100 scale): 75
[9]; [15]
  Plant response rating, Bermudagrass: 80
[9]; [16]
  Plant response rating, Bermudagrass: 98
[10]; [13]
  Plant response rating, Foxtail, Giant: 20
[10]; [14]
  Foxtail, Giant plant response rating (0 to 100 scale): 75
[10]; [15]
  Plant response rating, Foxtail, Giant: 80
[10]; [16]
  Plant response rating, Foxtail, Giant: 95
[11]; [13]
  Plant response rating, Foxtail, Green: 60
[11]; [14]
  Foxtail, Green plant response rating (0 to 100 scale): 60
[11]; [15]
  Plant response rating, Foxtail, Green: 70
[11]; [16]
  Plant response rating, Foxtail, Green: 98
[12]; [13]
  Plant response rating, Nutsedge, Yellow: 10
[12]; [14]
  Nutsedge, Yellow plant response rating (0 to 100 scale): 10
[12]; [15]
  Plant response rating, Nutsedge, Yellow: 10
[12]; [16]
  Plant response rating, Nutsedge, Yellow: 25
